Source: PMC3139790 (Bioorganic & medicinal chemistry, 2011)

Columns and labels:
HIV-1LAI [1] = details: HIV-1 infected MT-2 cells, previous studies; cited from earlier work
[2] = test system: genotype 1b and 2a HCV replicons; test: HCV replicon assays, genotype 1b and 2a stated together; type: cell-based, hepatitis C virus; details: for EC50: Hepatitis C virus, GETYPE1B, read-out: EC50 in genotype 1b and 2a HCV replicons
HIV-1LAI [3] = test: HIV-1 inhibition assay in MT-2 cells; type: cell-based; details: HIV-1 in MT-2 cells
[4] = test system: genotype 2a HCV replicon (JFH-1); test: HCV replicon assay, JFH-1; type: cell-based, hepatitis C virus; details: CC50/EC50, genotype 2a
[5] = test system: genotype 1b HCV replicon (BM4-5); test: HCV replicon assay, BM4-5; type: cell-based, hepatitis C virus; details: CC50/EC50, genotype 1b
HCMV = details: read-out: EC50 HCMV; in vitro; ref Beadle et al. (ref. [13]); cited from earlier work
Cowpox = details: read-out: EC50 Cowpox; cited from earlier work
Vaccinia = details: read-out: EC50 Vaccinia; in vitro; ref Beadle et al. (ref. [13]); cited from earlier work

In the case of `Nc1ncnc2c1ncn2CCOCP(=O)(O)O` [adefovir], the EC50 (HIV-1LAI [1]) is given as 1100 nM.

`CCCCCCCCCCCCCCCCOCCCOP(=O)(O)CO[C@H](COC)Cn1cnc2c(OC)ncnc21` [Compound 43, Hexadecyloxypropyl (S)-9-[(3-methoxy-2-phosphonomethoxy)propyl]-6-methoxypurine] gave an EC50 [2] of 8900 to 12500 nM.

In the case of `CCCCCCCCCCCCCCCCCCOCCOP(=O)([O-])CO[C@@H](COC)Cn1cnc2c(=O)[nH]c(N)nc21.[Na+]` [Compound 35, Octadecyloxyethyl (R)-9-[(3-methoxy-2-phosphonomethoxy)propyl]guanine], the “Selectivity Index” value (HIV-1LAI [3]) is reported as >4.4×10^6, the “Selectivity Index JFH-1 (2a)” value [4] is reported as greater than 12.1 and the “Selectivity Index BM4-5 (1b)” value [5] is reported as greater than 11.9.

For `CCCCCCCCCCCCCCCCCCOCCOP(=O)([O-])CO[C@H](COC)Cn1ccc(N)nc1=O.[Na+]` [Compound 40, Octadecyloxyethyl (S)-1-[(3-methoxy-2-phosphonomethoxy)propyl]cytosine], the “anti-HCV activity (in words)” value ([2]; genotype 1b and 2a replicons) was “inactive”.

In the case of `CCCCCCCCCCCCCCCCCCOCCOP(=O)(O)CO[C@H](CO)Cn1cnc2c(N)ncnc21` [Compound 1, octadecyloxyethyl 9-(S)-[3-hydroxy-2-(phosphonomethoxy)propyl]adenine], the EC50 (HCMV) is given as 3 ± 1 nM, the EC50 (Cowpox) is given as 50 ± 40 nM and the EC50 (Vaccinia) is given as 20 ± 10 nM.

In the case of `CCCCCCCCCCCCCCCCCCOCCOP(=O)([O-])CO[C@H](COC)Cn1cnc2c(=O)[nH]c(N)nc21.[Na+]` [Compound 34, Octadecyloxyethyl (S)-9-[(3-methoxy-2-phosphonomethoxy)propyl]guanine], the “Selectivity Index JFH-1 (2a)” value [4] is reported as greater than 14.0 and the “Selectivity Index BM4-5 (1b)” value [5] is reported as greater than 18.2.

In the case of `CCCCCCCCCCCCCCCCCCOCCOP(=O)(O)CO[C@H](COC)Cn1cnc2c(N)ncnc21` [Compound 15, Octadecyloxyethyl (S)-9-[(3-methoxy-2-phosphonomethoxy)propyl]adenine], the EC50 [2] is reported as 1000 to 2000 nM.

In the case of `C[C@H](Cn1cnc2c(N)ncnc21)OCP(=O)(O)O` [tenofovir], the EC50 (HIV-1LAI [1]) is given as 650 nM.

For `CCCCCCCCCCCCCCCCOCCCOP(=O)(O)CO[C@H](COC)Cn1cnc2c(OC)nc(N)nc21` [Compound 44, Hexadecyloxypropyl (S)-9-[(3-methoxy-2-phosphonomethoxy)propyl]-6-O-methylguanine], the EC50 [2] was 18000 to 26000 nM.
